Assays:
[1] = system: C. ljungdahlii ERI-2; assay: Carboxylic acid reduction in batch cultures with constant syngas supply; assay type: cell-based, Clostridium ljungdahlii; conditions: 15 mM carboxylic acid; for max. opt. density at 600 nm: triplicate
Method: (§1) All chemicals were purchased from Sigma-Aldrich, St. Louis, Mo., unless stated otherwise. Bacterial strain and growth conditions. Most experiments were conducted with C. ljungdahlii ERI-2 (ATTC 55380), which has been used successfully for syngas to ethanol fermentation. Some experiments were repeated with C. ragsdalei P11 (ATTC BAA-622). Bacteria were grown anaerobically at 35° C. in medium designed for efficient syngas fermentation. This medium is mostly based on ATCC medium 1754 but contains higher concentrations of the macronutrient elements. The yeast extract concentration was 0.5 g/L or 0.0 g/L as indicated for each experiment; the concentration of MES (2-(N-morpholino)ethanesulfonic acid) was 150 mM; carboxylic acids (propionic, n-butyric, isobutyric, n-valeric or n-caproic acid) were added to final concentrations of 15 mM before adjustment of the pH to 5.5. The syngas atmosphere was a synthetic blend of 60% [vol/vol]carbon monoxide, 35% hydrogen, and 5% carbon dioxide (Airgas East, Ithaca, N.Y.). Precultures of C. ljungdahlii or C. ragsdalei were grown in 250 ml serum bottles containing 20 ml medium with 0.5 g/L or 0.0 g/L yeast extract (the latter for inoculation of experiments with no yeast extract) and syngas in the headspace at a pressure of 28 psi with finite amounts of syngas. Precultures were maintained in an active state by weekly transfer of 2% into a fresh serum bottle with a headspace of finite syngas.
Experimental setup. The experiments to determine the ability of C. ljungdahlii to reduce propionic acid, n-butyric acid, n-valeric acid, n-caproic acid, or isobutyric acid (2-methyl propionic acid) to the corresponding alcohols were performed in triplicate in 250 ml rubber-stoppered Pyrex glass bottles (Fisher Scientific, Pittsburgh, Pa.), which were used as batch systems in regards to the growth medium, but with constant syngas supply (FIG. 1A). Three stainless steel needles of different length (21 gauge, Becton Dickinson Franklin Lakes, N.J., and ColeParmer, Vernon Hills, Ill.) were punched through each rubber stopper as gas supply, vent, and sample ports. The reactors were filled with 220 mL medium containing 0.5 g/L yeast extract and one of each carboxylic acids at a concentration of 15 mM, autoclaved, and then equipped with fermentation airlocks (www.winemakingsuperstore.com) filled with 5% sulfuric acid to prevent contamination by other microbes or oxygen, and placed in a temperature-controlled recirculating water bath for mechanical agitation using a 15 multi-position IKA magnetic stirrer (Cole-Parmer Vernon Hills, Ill. 60061 USA). Artificial syngas was constantly supplied to up to 12 reactors at a time, at a flow rate of 5 mL/min to each reactor with a gassing station with multiple outlets and low-flow brass needle valves (McMaster-Carr, Aurora, Ohio), sterile Masterflex viton tubing (Cole Parmer, Vernon Hills, Ill.), 0.22-μm sterile filters (Fisher Scientific), and sterile needles through the rubber stopper (size 6.5, VWR, Radnor, Pa.) connected to gas diffusion stones (Fisher Scientific). All reactors were inoculated with 2% exponentially growing pre-cultures. The fermentation was operated for ca. 400 h.
(§2) Analytical procedures. Cell dry weight concentration in the cultures was determined through measurement of the optical density with a Milton Roy Spectronic 1201 spectrophotometer at a wavelength of 600 nm after determining a correlation coefficient of 242 mg dry weight/(L*OD600nm). The carbon content was calculated using the universal proportion of elements in microbial biomass (C5H7O2N). A gas chromatography system (HP 5890, Hewlett Packard, Palo Alto, Calif.), which was equipped with a 7673 autoinjector and flame ionization detector, was used for the quantification of carboxylic acids and alcohols. GC columns were purchased from Sigma-Aldrich, Inc., St. Louis, Mo. The flow rates of hydrogen, air, and helium were 35, 380, and 30 mL/min. […]

[2] = system: C. ragsdalei P11; assay: as above; assay type: cell-based, Clostridium ragsdalei; conditions: 15 mM carboxylic acid; for max. opt. density at 600 nm: triplicate
Method: as §1
Experimental setup. The experiments to determine the ability of C. ljungdahlii to reduce propionic acid, n-butyric acid, n-valeric acid, n-caproic acid, or isobutyric acid (2-methyl propionic acid) to the corresponding alcohols were performed in triplicate in 250 ml rubber-stoppered Pyrex glass bottles (Fisher Scientific, Pittsburgh, Pa.), which were used as batch systems in regards to the growth medium, but with constant syngas supply (FIG. 1A). Three stainless steel needles of different length (21 gauge, Becton Dickinson Franklin Lakes, N.J., and ColeParmer, Vernon Hills, Ill.) were punched through each rubber stopper as gas supply, vent, and sample ports. […]
as §2, with “alcohols.” for “alcohols. GC columns were purchased from Sigma-Aldrich, Inc., St. Louis, Mo. The flow rates of hydrogen, air, and helium were 35, 380, and 30 mL/min.”

[3] = system: C. ljungdahlii ERI-2; assay: Batch syngas fermentation in 1 L bottles with a finite amount of syngas (stoichiometry); assay type: cell-based, Clostridium ljungdahlii; conditions: 15 mM n-butyric acid, 25 to 115 h
Method: The stoichiometry of substrates and products of syngas fermentation with 0 mM n-butyric acid and 15 mM n-butyric acid was determined in 1 L rubber-stoppered Pyrex glass bottles filled with […] medium without yeast extract and 1051.6 ml syngas headspace at a pressure of 28 psi. […] Here, yeast extract was omitted from the growth medium to minimize the interference of organic compounds (amino acids) in the fermentation. Two needles, each connected to a three-way valve, were used to take gas or liquid samples from the reactor. Gas pressure was measured using gauge pressure transducers (Model PX26, Omega Engineering, Inc., Stamford, Conn.) attached to hypodermic needles inserted through a rubber septum on the three-way valve of the sampling port. […] Cell density (OD600nm), pH, headspace gas pressure, concentrations of carbon monoxide, hydrogen, and carbon dioxide in the headspace, and concentrations of carboxylic acids and solvents in the culture medium were monitored daily. […]
Analytical procedures. Cell dry weight concentration in the cultures was determined through measurement of the optical density with a Milton Roy Spectronic 1201 spectrophotometer at a wavelength of 600 nm after determining a correlation coefficient of 242 mg dry weight/(L*OD600nm). The carbon content was calculated using the universal proportion of elements in microbial biomass (C5H7O2N). […]

| SMILES | growth rate [1] [h⁻¹] | max. opt. density at 600 nm [1] | growth rate [2] [h⁻¹] | max. opt. density at 600 nm [2] | cell mass DW [3] [mg] | maximum OD600 [3] |
| --- | --- | --- | --- | --- | --- | --- |
| CC(C)C(=O)O [isobutyric acid] | 0.077 ± 0.008 | 2.50 ± 0.31 | – | – | – | – |
| CCCC(=O)O [n-butyric acid] | 0.094 ± 0.004 | 2.71 ± 0.39 | 0.120 ± 0.004 | 0.98 ± 0.05 | 16.65 ± 2.99 | 1.34 ± 0.21 |
| CCCCCC(=O)O [n-caproic acid] | 0.049 ± 0.003 | 1.47 ± 0.17 | – | – | – | – |
| CCCCC(=O)O [n-valeric acid] | 0.077 ± 0.007 | 2.01 ± 0.04 | – | – | – | – |
| CCC(=O)O [propionic acid] | 0.084 ± 0.012 | 2.69 ± 0.19 | 0.093 ± 0.024 | 0.53 ± 0.14 | – | – |

Reference: patent US20150218599A1, “METHODS FOR PRODUCTION OF ALCOHOLS FROM CARBOXYLIC ACIDS VIA FERMENTATION” (Cornell University, priority 2012, published 2015)
